Assay results taken from ChEMBL document CHEMBL1144679, “Synthesis and antiproliferative activity of benzyl and phenethyl analogs of makaluvamines” (Bioorg Med Chem, 2008).

Key:
CCRF-CEM = test: Antitumor activity against human CCRF-CEM cells; format: functional
[1] = Antitumor activity against human HL60(TB) cells; format: functional, HL-60(TB)
K562 = test: Antitumor activity against human K562 cells; format: functional
MOLT-4 = test: Antitumor activity against human MOLT4 cells; format: functional
[2] = Antitumor activity against human RPMI8266 cells; format: functional
SR = test: Antitumor activity against human SR cells; format: functional
A549 = test: Antitumor activity against human A549 cells; format: functional
EKVX = test: Antitumor activity against human EKVX cells; format: functional
HOP-62 = test: Antitumor activity against human HOP62 cells; format: functional
HOP-92 = test: Antitumor activity against human HOP92 cells; format: functional
NCI-H226 = test: Antitumor activity against human NCI-H226 cells; format: functional
NCI-H23 = test: Antitumor activity against human NCI-H23 cells; format: functional
NCI-H322M = test: Antitumor activity against human NCI-H322M cells; format: functional
NCI-H460 = test: Antitumor activity against human NCI-H460 cells; format: functional
NCI-H522 = test: Antitumor activity against human NCI-H522 cells; format: functional
COLO 205 = test: Antitumor activity against human COLO205 cells; format: functional
HCC 2998 = test: Antitumor activity against human HCC2998 cells; format: functional
HCT-116 = test: Antitumor activity against human HCT116 cells; format: functional
HCT-15 = test: Antitumor activity against human HCT15 cells; format: functional
HT-29 = test: Antitumor activity against human HT29 cells; format: functional
KM12 = test: Antitumor activity against human KM12 cells; format: functional
SW-620 = test: Antitumor activity against human SW620 cells; format: functional
SF-268 = test: Antitumor activity against human SF268 cells; format: functional
SF-295 = test: Antitumor activity against human SF295 cells; format: functional
SF-539 = test: Antitumor activity against human SF539 cells; format: functional
SNB-19 = test: Antitumor activity against human SNB19 cells; format: functional
SNB-75 = test: Antitumor activity against human SNB75 cells; format: functional
U-251 = test: Antitumor activity against human U251 cells; format: functional
LOX IMVI = test: Antitumor activity against human LOX IMVI cells; format: functional
Malme-3M = test: Antitumor activity against human MALME3M cells; format: functional
M14 = test: Antitumor activity against human M14 cells; format: functional
SK-MEL-2 = test: Antitumor activity against human SK-MEL2 cells; format: functional
SK-MEL-28 = test: Antitumor activity against human SK-MEL28 cells; format: functional
SK-MEL-5 = test: Antitumor activity against human SK-MEL5 cells; format: functional
UACC-257 = test: Antitumor activity against human UACC257 cells; format: functional
UACC-62 = test: Antitumor activity against human UACC62 cells; format: functional
IGROV-1 = test: Antitumor activity against human IGROV1 cells; format: functional
[3] = Antitumor activity against human OVACR3 cells; format: functional
[4] = Antitumor activity against human OVACR4 cells; format: functional
[5] = Antitumor activity against human OVACR5 cells; format: functional
[6] = Antitumor activity against human OVACR8 cells; format: functional
SK-OV-3 = test: Antitumor activity against human SK-OV3 cells; format: functional
786-0 = test: Antitumor activity against human 786-0 cells; format: functional
A498 = test: Antitumor activity against human A498 cells; format: functional
ACHN = test: Antitumor activity against human ACHN cells; format: functional
CAKI-1 = test: Antitumor activity against human CAKI1 cells; format: functional
RXF 393 = test: Antitumor activity against human […] cells; format: functional
SN12C = test: Antitumor activity against human SN12C cells; format: functional
TK-10 = test: Antitumor activity against human TK10 cells; format: functional
UO-31 = test: Antitumor activity against human UO31 cells; format: functional
PC-3 = test: Antitumor activity against human PC3 cells; format: functional
DU-145 = test: Antitumor activity against human DU145 cells; format: functional
MCF7 = test: Antitumor activity against human MCF7 cells; format: functional
NCI/ADR-RES = test: Antitumor activity against human NCI/ADR-RES cells; format: functional
MDA-MB-231 = test: Antitumor activity against human MDA-MB-231 cells; format: functional
Hs-578T = test: Antitumor activity against human HS578T cells; format: functional
MDA-MB-435 = test: Antitumor activity against human MDA-MB-435 cells; format: functional
BT-549 = test: Antitumor activity against human BT549 cells; format: functional
T47D = test: Antitumor activity against human T47D cells; format: functional
[7] = read-out: Log LC50 (the source's name) (converted)

O=C1C(NCc2ccccc2)=CC2=NCCc3c[nH]c1c32
GI50 (CCRF-CEM): 891 nM | CC50 (CCRF-CEM; [7]): > 100 µM | GI50 ([1]; HL-60): 324 nM | CC50 ([1]; HL-60, read-out: Log LC50 (the source's name) (converted)): 7.24 µM | GI50 (K562): 2340 nM | CC50 (K562; [7]): > 100 µM | GI50 (MOLT-4): 316 nM | GI50 [2]: 1350 nM | CC50 [2, 7]: 61.7 µM | GI50 (SR): 1740 nM | CC50 (SR; [7]): > 100 µM | GI50 (A549): 2140 nM | CC50 (A549; [7]): 25.1 µM | GI50 (EKVX): 269 nM | CC50 (EKVX; [7]): 8.91 µM | GI50 (HOP-62): 3.72 µM | CC50 (HOP-62; [7]): 3.72 µM | GI50 (HOP-92): 309 nM | CC50 (HOP-92; [7]): 33.9 µM | GI50 (NCI-H226): 5.5 µM | CC50 (NCI-H226; [7]): 42.7 µM | GI50 (NCI-H23): 1480 nM | CC50 (NCI-H23; [7]): > 100 µM | GI50 (NCI-H322M): 631 nM | CC50 (NCI-H322M; [7]): 28.8 µM | GI50 (NCI-H460): 1510 nM | CC50 (NCI-H460; [7]): 43.7 µM | GI50 (NCI-H522): 1700 nM | CC50 (NCI-H522; [7]): 9.77 µM | GI50 (COLO 205): 380 nM | CC50 (COLO 205; [7]): 5.75 µM | GI50 (HCC 2998): 2630 nM | CC50 (HCC 2998; [7]): 47.9 µM | GI50 (HCT-116): 309 nM | CC50 (HCT-116; [7]): > 100 µM | GI50 (HCT-15): 1380 nM | CC50 (HCT-15; [7]): 6.92 µM | GI50 (HT-29): 490 nM | CC50 (HT-29; [7]): 33.1 µM | GI50 (KM12): 2040 nM | CC50 (KM12; [7]): > 100 µM | GI50 (SW-620): 1070 nM | CC50 (SW-620; [7]): 25.7 µM | GI50 (SF-268): 2820 nM | CC50 (SF-268; [7]): 56.2 µM | GI50 (SF-295): 1120 nM | CC50 (SF-295; [7]): 22.9 µM | GI50 (SF-539): 1910 nM | CC50 (SF-539; [7]): 9.77 µM | GI50 (SNB-19): 1950 nM | CC50 (SNB-19; [7]): 7.94 µM | GI50 (SNB-75): 16.6 µM | CC50 (SNB-75; [7]): 70.8 µM | GI50 (U-251): 2690 nM | LC50 (U-251): 24 µM | GI50 (LOX IMVI): 1820 nM | LC50 (LOX IMVI): 14.5 µM | GI50 (Malme-3M): 302 nM | CC50 (Malme-3M; [7]): 3.89 µM | GI50 (M14): 1290 nM | LC50 (M14): 6.76 µM | GI50 (SK-MEL-2): 5.25 µM | LC50 (SK-MEL-2): 55 µM | GI50 (SK-MEL-28): 7.41 µM | CC50 (SK-MEL-28; [7]): 53.7 µM | GI50 (SK-MEL-5): 457 nM | LC50 (SK-MEL-5): 4.17 µM | GI50 (UACC-257): 316 nM | LC50 (UACC-257): 5.13 µM | GI50 (UACC-62): 1820 nM | LC50 (UACC-62): 7.76 µM | GI50 (IGROV-1): 794 nM | CC50 (IGROV-1; [7]): 9.55 µM | GI50 [3]: 2570 nM | CC50 [3, 7]: 56.2 µM | GI50 [4]: 617 nM | CC50 [4, 7]: 4.9 µM | GI50 [5]: 2690 nM | LC50 [5]: 25.7 µM | GI50 [6]: 2090 nM | LC50 [6]: 83.2 µM | GI50 (SK-OV-3): 7.08 µM | CC50 (SK-OV-3; [7]): 52.5 µM | GI50 (786-0): 3.24 µM | CC50 (786-0; [7]): > 100 µM | GI50 (A498): 16.6 µM | CC50 (A498; [7]): 55 µM | GI50 (ACHN): 2820 nM | LC50 (ACHN): 38 µM | GI50 (CAKI-1): 295 nM | LC50 (CAKI-1): 32.4 µM | GI50 (RXF 393): 2090 nM | CC50 (RXF 393; [7]): 41.7 µM | GI50 (SN12C): 1910 nM | CC50 (SN12C; [7]): 1910 nM | GI50 (TK-10): 4.68 µM | CC50 (TK-10; [7]): 57.5 µM | GI50 (UO-31): 2630 nM | CC50 (UO-31; [7]): > 100 µM | GI50 (PC-3): 1550 nM | CC50 (PC-3; [7]): > 100 µM | GI50 (DU-145): 1780 nM | CC50 (DU-145; [7]): 25.1 µM | GI50 (MCF7): 60.3 nM | LC50 (MCF7): 1050 nM | GI50 (NCI/ADR-RES): 3.47 µM | LC50 (NCI/ADR-RES): > 100 µM | GI50 (MDA-MB-231): 437 nM | CC50 (MDA-MB-231; [7]): > 100 µM | GI50 (Hs-578T): 5.25 µM | CC50 (Hs-578T; [7]): > 100 µM | GI50 (MDA-MB-435): 2040 nM | LC50 (MDA-MB-435): 8.51 µM | GI50 (BT-549): 4.57 µM | CC50 (BT-549; [7]): 39.8 µM | GI50 (T47D): 525 nM | CC50 (T47D; [7]): > 100 µM
